Read-outs that look alike come from different tables or passages of the source.
Assays:
[1] = Cytotoxicity assay (LDH release) in HepG2_LSSprom cells; type: cell-based; settings: human, HepG2 LSSprom cells, 24 h treatment, LDH release
Description: (§1) HepG2_LSSprom cells (SwitchGear Genomics, cat# C711010L) were cultured in DMEM with 10% of fetal bovine serum (FBS), supplemented with Puromycin (1 μg/mL), 1% Penicillin/Streptomycin (Pen-Strep), 37° C., humidified, 95% air and 5% CO2. Culture media was refreshed every 2 or 3 days. Cells were used between passage number 6-12.
For cytotoxicity assays, cells were plated out at 20,000 cells/well in transparent 96 well plates in DMEM plus 10% FBS and 1% Pen-Strep without puromycin. After 1 day, cells were treated with Compound by diluting in culture medium without FBS to a final concentration of 0.625, 1.25, 2.5, 3.75, 5 and 10 μM. Compound was prepared by dilutions of 10 mM stock aliquots. As a negative control culture medium was used without FBS plus DMSO. As maximum LDH release control (Lysis control) a lysis buffer provided by the kit manufacturer was used. Treatments with Compound were maintained for 6 h, or 24 h, in cell culture medium without serum until the cytotoxicity assay was started.
The cytotoxicity assay was performed according to the manufacturer's instructions. As maximum LDH release control (Lysis control) 3 wells per plate were treated with 10 μL of lysis buffer 45 min before the treatment was over. Briefly, after the 6 h, or 24 h, of treatment, 50 μL of media from each well was transferred to a new 96-well plate. To the transferred media, 50 μL of reconstituted substrate mix was added. The plates were covered from light and incubated at RT for 10 min. Then, 50 μL of stop solution was added to each well. The plates were then read using a Synergy 4 (Biotek) equipment recording the absorbance at 490 nm.
(§2) Five independent experiments were carried out for both luciferase and cytotoxicity assay. In each experiment, three wells were use per condition and the results are represented as means±SEM.
For cytotoxicity assay, Lysis control was taken as 100%/o of LDH release. The vehicle values were taken as basal LDH release and were subtracted to all the treatments (including vehicle itself) having this value as 0% of LDH release. The LDH release for the treatments was calculated respect to the 100% of LDH release of Lysis control normalized against vehicle. All the negatives values were taken as 0% of cytotoxicity. The graphics were made using the Graph Prism ver. 6.05 software.

[2] = tested on: SREBP-2 transcriptional activity (SREBP2 cleavage) in HepG2_LSSprom cells; test: Luciferase reporter driven by a SREBP-2 specific promoter in HepG2_LSSprom cells; type: cell-based; settings: read-out: SREBP2 Cleavage (IC50 μM) 24 h
Description: Dose response effects were measured of Compounds on the transcriptional activity of a Luciferase reporter driven by a SREBP-2 specific promoter in HepG2_LSSprom cells.
as §1
For luminescence assays, cells were plated out at 20,000 cells/well in white 96 well plates in DMEM plus 10% FBS and 1% Pen-Strep without puromycin. After 1 day, cells were treated with Compound by diluting the drug in culture medium without FBS to a final concentration of 0.625, 1.25, 2.5, 3.75, 5 and 10 μM. Drug was prepared by dilutions of 10 mM stock aliquots. As control was used culture medium without FBS plus DMSO. Treatments with Compound were maintained for 6 h, or 24 h, until the luciferase assay was carried out.
After 6 h of treatments with Compound, the luciferase assay was performed. Briefly, the assay solution (buffer+substrate) was prepare just prior to use. To each well 100 μL of assay solution was added. The 96-well plate was then gently mix for 2 min and incubated for 30 min at RT protected from light. The luminescence was read using a Synergy 4 (Biotek) equipment recording luminescence with sensibility set up at 150.
as §2
For luciferase assay, Vehicle (no treatment) was taken as 100% of luciferase activity. This value represents the SREBP-2 transcriptional activity for the vehicle condition and was taken as 100% of SREBP-2 cleaved. The percentage for each treatment was calculated normalizing against the vehicle control. The graphics were made using the GraphPad Prism ver. 6.05 software. Half of maximal inhibitory concentration (IC50) of the effect of Compound on SREBP was obtain by nonlinear fit regression of mean normalized values vs. Compound concentration using the log(inhibitor) vs. response−Variable slope (four parameters) tool.

[3] = 24 h, 24 h treatment, HepG2_LSSprom cells

Row | Structure (SMILES) | IC50 [2, 3] [µM] | IC50 ([2]; 24 h treatment, HepG2_LSSprom cells) [µM] | IC50 at 24 h [1] [µM] | IC50 ([2]; 24 h) [µM]
1 | CC(C)(C)c1cc(-c2csc(-c3ccc(C(=O)N4CCCc5ncccc54)cc3Cl)c2)ccn1 [Compound 97, 1-{4-[4-(2-tert-butylpyridin-4-yl)thiophen-2-yl]-3-chlorobenzoyl}-1,2,3,4-tetrahydro-1,5-naphthyridine] | 0.17 |  | > 3 | 
2 | CCOC(=O)NC1CCN(C(=O)c2ccc(-c3csc(-c4ccnc(C(C)(C)C)c4)c3)c(Cl)c2)CC1 [Compound 63, ethyl N-(1-{4-[5-(2-tert-butylpyridin-4-yl)thiophen-3-yl]-3-chlorobenzoyl}piperidin-4-yl)carbamate] | 2.1 |  | > 10 | 
3 | CCN(CCNC(C)=O)C(=O)c1ccc(-c2csc(-c3ccnc(C(C)(C)C)c3)c2)c(Cl)c1 [Compound 47, N-[2-(1-{4-[5-(2-tert-butylpyridin-4-yl)thiophen-3-yl]-3-chlorophenyl}-N-ethylformamido)ethyl]acetamide] | 0.33 |  | > 10 | 
4 | CCN1CCN(C(=O)c2ccc(-c3csc(-c4ccnc(C(C)(C)C)c4)c3)c(Cl)c2)CC1=O [Compound 39, 4-{4-[5-(2-tert-butylpyridin-4-yl)thiophen-3-yl]-3-chlorobenzoyl}-1-ethylpiperazin-2-one] |  |  | > 10 | 6.2
5 | CC(C)(C)c1cc(-c2cc(-c3ccc(C(=O)N4CCCC5(CCNC5=O)C4)cc3Cl)cs2)ccn1 (stereo not shown) [Compound 83, 7-{4-[5-(2-tert-butylpyridin-4-yl)thiophen-3-yl]-3-chlorobenzoyl}-2,7-diazaspiro[4.5]decan-1-one] | 0.47 |  | > 10 | 
6 | CCOC(=O)N1CCN(C(=O)c2ccc(-c3csc(-c4ccnc(C(C)(C)C)c4)c3)c(Cl)c2)CC1 [Compound 45, ethyl 4-{4-[5-(2-tert-butylpyridin-4-yl)thiophen-3-yl]-3-chlorobenzoyl}piperazine-1-carboxylate] |  |  | > 10 | 1.8
7 | CC(C)(C)OC(=O)N1CCC(NC(=O)c2ccc(-c3csc(-c4ccnc(C(C)(C)C)c4)c3)c(Cl)c2)CC1 [Compound 78, tert-butyl 4-{4-[5-(2-tert-butylpyridin-4-yl)thiophen-3-yl]-3-chlorobenzamido}piperidine-1-carboxylate] | 0.2 |  | > 10 | 
8 | CC(C)CCn1nccc1-c1cc(-c2ccc(C(=O)N3CCOCC3)cc2Cl)cs1 [Compound 102, [3-chloro-4-[5-(2-isopentylpyrazol-3-yl)-3-thienyl]phenyl]-morpholino-methanone] | 0.44 |  | > 10 | 
9 | CC(C)(C)c1cc(-c2cc(-c3ccc(C(=O)N4CCN(S(C)(=O)=O)CC4)cc3Cl)cs2)ccn1 [Compound 30, 1-{4-[5-(2-tert-butylpyridin-4-yl)thiophen-3-yl]-3-chlorobenzoyl}-4-methane sulfonylpiperazine] | 2.5 |  | > 10 | 
10 | CC(C)(C)c1cc(-c2cc(-c3ccc(C(=O)NC4CCC4)cc3Cl)cs2)ccn1 [Compound 8, 4-[5-(2-tert-butylpyridin-4-yl)thiophen-3-yl]-3-chloro-N-cyclobutylbenzamide] | > 3 |  | > 3 | 
11 | CC(C)(C)c1cc(-c2cc(-c3ccc(C(=O)NCC(=O)N4CCOCC4)cc3Cl)cs2)ccn1 [Compound 61, 4-[5-(2-tert-butylpyridin-4-yl)thiophen-3-yl]-3-chloro-N-[2-(morpholin-4-yl)-2-oxoethyl]benzamide] | 1.5 |  | > 10 | 
12 | CC(C)(C)c1cc(-c2nc(-c3ccc(C(=O)N4CCC(O)CC4)cc3Cl)c[nH]2)ccn1 [Compound 98, 1-{4-[2-(2-tert-butylpyridin-4-yl)-1H-imidazol-4-yl]-3-chlorobenzoyl}piperidin-4-ol] |  |  | > 10 | 0.99
13 | CC(C)(C)OC(=O)N1CCN(C(=O)c2ccc(-c3csc(-c4ccnc(C(C)(C)C)c4)c3)c(Cl)c2)CC1 [Compound 27, tert-butyl 4-{4-[5-(2-tert-butylpyridin-4-yl)thiophen-3-yl]-3-chlorobenzoyl}piperazine-1-carboxylate] | 0.68 |  | > 10 | 
14 | CN(C(=O)c1ccc(-c2csc(-c3ccnc(C(C)(C)C)c3)c2)c(Cl)c1)c1ccccc1 [Compound 41, 4-[5-(2-tert-butylpyridin-4-yl)thiophen-3-yl]-3-chloro-N-methyl-N-phenyl benzamide] | 0.39 |  | > 10 | 

More lines, main results first:

Row | IC50 [2, 3] [µM] | IC50 ([2]; 24 h treatment, HepG2_LSSprom cells) [µM] | Structure (SMILES) | IC50 at 24 h [1] [µM] | IC50 ([2]; 24 h) [µM]
15 | 1 |  | CC(C)(C)c1cc(-c2cc(-c3ccc(C(=O)N4CCCC(NC(=O)NC5CC5)C4)cc3Cl)cs2)ccn1 (stereo not shown) [Compound 56, 1-(1-{4-[5-(2-tert-butylpyridin-4-yl)thiophen-3-yl]-3-chlorobenzoyl}piperidin-3-yl)-3-cyclopropylurea] | > 10 | 
16 | 1.4 |  | CC(C)(C)c1cc(-c2csc(-c3ccc(C(=O)N4CC[C@@H](N)C4)cc3Cl)c2)ccn1 [Compound 96a, (3R)-1-{4-[4-(2-tert-butylpyridin-4-yl)thiophen-2-yl]-3-chlorobenzoyl}pyrrolidin-3-amine] | > 10 | 
17 | 0.15 |  | CC(C)(C)c1cc(-c2csc(-c3ccc(C(=O)N4CCC(F)(F)CC4)cc3Cl)c2)ccn1 [Compound 40, 2-tert-butyl-4-{5-[2-chloro-4-(4,4-difluoropiperidine-1-carbonyl)phenyl]thiophen-3-yl}pyridine] | > 10 | 
18 | 0.42 |  | CC1(N)CCCN(C(=O)c2ccc(-c3cc(-c4ccnc(C(C)(C)C)c4)cs3)c(Cl)c2)C1 (stereo not shown) [Compound 95, 1-{4-[4-(2-tert-butylpyridin-4-yl)thiophen-2-yl]-3-chlorobenzoyl}-3-methylpiperidin-3-amine] | > 10 | 
19 | 0.85 |  | CC(C)(C)c1cc(-c2cc(-c3ccc(C(=O)N4CCCC(N5CCCC5=O)C4)cc3Cl)cs2)ccn1 (racemic) [Compound 34, 1-(1-{4-[5-(2-tert-butylpyridin-4-yl)thiophen-3-yl]-3-chlorobenzoyl}piperidin-3-yl) pyrrolidin-2-one] | > 10 | 
20 |  | 0.26 | CC1(N)CCCN(C(=O)c2ccc(-c3cc(-c4ccnc(C(C)(C)C)c4)cs3)c(Cl)c2)C1 (single isomer, unassigned) [Compound 95a] | > 10 | 
21 | 0.08 |  | CN(C(=O)OC(C)(C)C)C1CCCN(C(=O)c2ccc(-c3csc(-c4ccnc(C(C)(C)C)c4)c3)c(Cl)c2)C1 (stereo not shown) [Compound 70, tert-butyl N-(1-{4-[5-(2-tert-butylpyridin-4-yl)thiophen-3-yl]-3-chlorobenzoyl}piperidin-3-yl)-N-methylcarbamate] | > 10 | 
22 | 2.8 |  | CC(C)(C)c1cc(-c2csc(-c3ccc(C(=O)N4CCC(C(=O)O)CC4)cc3Cl)c2)ccn1 [Compound 88, 1-{4-[4-(2-tert-butylpyridin-4-yl)thiophen-2-yl]-3-chlorobenzoyl}piperidine-4-carboxylic acid] | > 10 | 
23 | 0.02 |  | CC(C)(C)c1cc(-c2csc(-c3ccc(C(=O)N4CCC[C@H](O)C4)cc3Cl)c2)ccn1 [Compound 89b, (S)-(4-(4-(2-(tert-butyl)pyridin-4-yl)thiophen-2-yl)-3-chlorophenyl)(3-hydroxypiperidin-1-yl)methanone] | > 10 | 
